The assay deals with yeast-like fungi (C. glabrata). Description: Flow cytometry of urine specimen spiked with yeast-like fungi: fluorescence stainability of the fungi. The class given is cell-based. The conditions noted are these: for Fluorescence intensity: average fluorescence signal of yeast-like fungi in human urine without erythrocytes, substance at 1.0 wt % in diluting liquid in place of 2-phenoxyethanol, relative values on scale 0-255. As to the method: A staining liquid was used which was obtained by dissolving a fluorescent dye represented by the following formula in ethylene glycol so that the final concentration in the sample for analysis would be 6 ppm.
In the step S1, the sample preparing section 200 is controlled to execute the preparation of a sample for analysis. The operation of the sample preparing section 200 in the step S1 will be described with reference to FIG. 5. First, the dispensing device 224 sucks 522 μL of a diluting liquid from the sample container 231 of the reagent setting section 222, and then sucks 180 µL of a specimen (human urine) from the specimen container 225 that is set in the specimen setting section 221. The dispensing device 224 then dispenses the sucked diluting liquid and specimen to the reaction vessel 226 that is set in the incubator 223. Next, the dispensing device 224 sucks 18 μL of a staining liquid from the reagent container 227 of the reagent setting section 222, and dispenses the staining liquid to the reaction vessel 226. Thereafter, the incubator 223 stirs the mixture for 10 seconds to stain the diluted specimen while keeping the liquid temperature within the reaction vessel 226 containing the specimen, diluting liquid, and staining liquid to be 35 °C. The sample liquid for analysis thus prepared is sucked by the dispensing device 224, and is supplied to the sample container 233. The sample liquid for analysis supplied to the sample container 233 is let to flow through the flow cell 301 of the detecting section 300.
In the step S2, the detecting section 300 is controlled to detect signals reflecting the characteristics of each particle from the particles in the sample liquid for analysis. The operation of the detecting section 300 in the step S2 will be described with reference to FIG. 6. When the sample liquid is supplied to the sample container 233 as described above, the sample liquid is guided to the nozzle 303 by the operation of pumps and valves (not illustrated). Then, the sample liquid is ejected from the nozzle 303 to the flow cell 301. Simultaneously with this, a sheath liquid is supplied to the flow cell 301 from a sheath liquid container (not illustrated) via a sheath liquid inlet 304. By this, the sample liquid is surrounded by the sheath liquid in the flow cell 301, and is further narrowed down at by the orifice section 302 to flow. By narrowing the flow of the sample liquid, the particles such as erythrocytes and bacteria contained in the sample liquid are arranged in one line to flow through the orifice section 302. A laser beam emitted from the laser light source 306 is condensed by the condenser lens 307 and is radiated to the sample liquid that is flowing through the orifice section 302. The forward scattered light emitted from a particle in the sample liquid irradiated with the laser beam is condensed by the collector lens 309. Then the forward scattered light that has passed through the pinhole 310 is received and subjected to photoelectric conversion by the photodiode 308 to become a pulse-like forward scattered light signal. The fluorescence emitted from the particle in the sample liquid irradiated with the laser beam is condensed by the collector lens 312. Then the fluorescence that has passed through the filter 313 and the pinhole 314 is received and subjected to photoelectric conversion by the photomultiplier tube 311 to become a pulse-like fluorescence signal. The forward scattered light signal and the fluorescence signal are amplified respectively by the amplifiers 315, 316 and are sent to the controlling section 400.
First, the forward scattered light signal and the fluorescence signal detected by the detecting section are input into the signal processing circuit 403.

`CC(O)COc1ccccc1` (stereo not shown) [1-phenoxy-2-propanol] returned a Fluorescence intensity of 103. Take `OCCOc1ccccc1` [2-phenoxyethanol]: the “Fluorescence intensity of yeast-like fungi compared with erythrocytes (two-dimensional scattergram)” value (human urine with erythrocytes plus C. glabrata, diluting liquid with 2-phenoxyethanol 7.5 g/l, pH 7.0 (Example 1) versus without (Example 2)) is “larger fluorescence intensity than the erythrocytes”. The compound `c1ccc2scnc2c1` [Benzothiazole] registered a Fluorescence intensity of 92. On the same count and under the same terms, under `OCc1ccccc1` [Benzyl alcohol] stands 73; under `Oc1ccccc1` [Phenol], 55. `CC(=O)Oc1ccccc1` [Phenyl acetate] came in with a Fluorescence intensity of 82. Compound `OCCc1ccccc1` [β-phenethyl alcohol] yielded a Fluorescence intensity of 84.

For the origin of these results see US7632683B2, “Method, apparatus, reagent kit and reagent for distinguishing erythrocytes in a biological specimen” (Sysmex Corporation, priority 2004, dated 2009).
